These are literature values, as cited in patent US10561746B2, “Gel formulations for guiding radiotherapy” (DANMARKS TEKNISKE UNIVERSITET, priority 2013, dated 2020).

Some results are limits rather than exact numbers.

On to H-(FEFEFKFK)2-OH [FEK16], for which the “concentration at which self-assembled hydrogels form” value (in the presence of mM concentrations of NaCl, KCl, and CaCl2) was above 10000 µg/mL. In addition, the “solubility in pure H2O” value (pure H2O) is given as “highly soluble”.
